The record followed here is patent US20190038659A1, “METHODS OF TREATING AND PREVENTING AMYOTROPHIC LATERAL SCLEROSIS” (priority 2015, published 2019).

“Also recorded” adds a separate entry of the source. Read-outs that look alike come from different tables or passages of the source.

Assay [1] deals with HERV-K reverse transcriptase. Nature of the assay: HERV-K RT activity in a cell-free system (PERT assay). In kind it is biochemical, human endogenous retrovirus-K (HERV-K). The conditions noted are these: inhibitor added to extracted HERV-K RT just prior to PERT assay.
For the next assay, the system named is VSV-G pseudotyped HERV-K. Description: cells. In kind it is cell-based, human endogenous retrovirus-K (HERV-K). The conditions noted are these: for IC90: Homo sapiens, HeLa, 144 h, read-out: IC90, HERV-K replication (gag RNA by qPCR). (Quantitative PCR measures a nucleic acid by following its amplification.)
In another assay the test system is HERV-K viral transcripts. Nature of the assay: HERV-K activation in human neuronal cultures after neuronal injury (viral transcripts). The class given is cell-based. The conditions noted are these: human neurons; 3 mM 3-nitropropionic acid, 100 μM N-methyl-D-aspartate or 100 μM hydrogen peroxide, 18 hours.
The next assay relates to HERV-K protease. Description: HERV-K viral production from pCD-HK/Rev transfected HeLa cells with protease inhibitors (PERT assay of supernatant). The class given is cell-based, human endogenous retrovirus-K (HERV-K). The conditions noted are these: for IC90: Homo sapiens; for inhibition of HERV-K viral production (in words): inhibitors added 6 hr after transfection, PERT assay.

Where [2] appears, read: 2-fold serial dilution 31.25 nM to 1 μM.
Where [3] appears, read: 2-fold serial dilution 31.25 nM to 1 μM, PERT 48 hrs, read-out: IC90, HERV-K viral production.
Setting [4] is: 10-fold serial dilution 0.001 μM-100 μM, PERT 48 hr post-treatment, read-out: IC90, HERV-K protease / viral production, extensive dose-response.

In the case of `C[C@H](Cn1cnc2c(N)ncnc21)OCP(=O)(O)O` [Tenofovir], the “inhibition of HERV-K RT activity” value in assay [1] is “significant and dose-dependent inhibition”.
As to `Cc1cn([C@H]2C[C@H](N=[N+]=[N-])[C@@H](CO)O2)c(=O)[nH]c1=O` [Zidovudine], the “inhibition of HERV-K RT activity” value in assay [1] is “significant and dose-dependent inhibition”. In addition, in the assay with VSV-G pseudotyped HERV-K, the “inhibition of HERV-K replication (in words)” value is “effectively block; also recorded: inhibited HERV-K replication in a dose-dependent manner; also recorded: effectively inhibited” and the IC90 amounted to 70 nM.
With `O=C(O)CC[N+](=O)[O-]` [3-nitropropionic acid], the “activation of HERV-K (viral transcripts)” value in the assay on HERV-K viral transcripts was “No activation of HERV-K”.
Take `Cc1cccc(C)c1OCC(=O)N[C@@H](Cc1ccccc1)[C@@H](O)C[C@H](Cc1ccccc1)NC(=O)[C@H](C(C)C)N1CCCNC1=O` [Lopinavir]: the “rank among the HIV protease inhibitors tested” value with HERV-K protease (setting [2]) is “highest efficacy; also recorded: two most potent drugs”. Besides, the IC90 was about 100 nM in the assay with HERV-K protease (setting [3]) and 651 nM in the assay on HERV-K protease (setting [4]). For the same compound, the “inhibition of HERV-K viral production (in words)” value in the assay on HERV-K protease is “inhibited HERV-K protease in a dose-dependent manner”.
In the case of `CC(C)CN(C[C@@H](O)[C@H](Cc1ccccc1)NC(=O)O[C@H]1CO[C@H]2OCC[C@H]21)S(=O)(=O)c1ccc(N)cc1` [Darunavir], in the assay with HERV-K protease (setting [2]), the “rank among the HIV protease inhibitors tested” value was “highest efficacy; also recorded: two most potent drugs”. In addition, the IC90 with HERV-K protease (setting [3]) was about 100 nM; in the assay with HERV-K protease (setting [4]), 71 nM. In the assay on HERV-K protease, the “inhibition of HERV-K viral production (in words)” value is reported as “inhibited HERV-K protease in a dose-dependent manner”.
As for `Cc1nnc(C(=O)NC(C)(C)c2nc(C(=O)NCc3ccc(F)cc3)c(O)c(=O)n2C)o1` [Raltegravir], in the assay with VSV-G pseudotyped HERV-K, the “inhibition of HERV-K replication (in words)” value is “effectively block; also recorded: inhibited the replication of HERV-K in a dose-dependent manner; also recorded: effectively inhibited” and the IC90 worked out at 75 nM.
For `O=C1Nc2ccc(Cl)cc2[C@@](C#CC2CC2)(C(F)(F)F)O1` [Efirvarenz], the “inhibition of HERV-K RT activity” value in assay [1] is reported as “significant inhibition”.
For the compound `CN[C@H](CC(=O)O)C(=O)O` [N-methyl-D-aspartate], the “activation of HERV-K (viral transcripts)” value with HERV-K viral transcripts is on record as “No activation of HERV-K”.
`Cc1ccnc2c1NC(=O)c1cccnc1N2C1CC1` [Nevirapine]: the “inhibition of HERV-K RT activity” value in assay [1] is listed as “significant inhibition”.
Still for that read-out and setting: to `Cc1cn([C@H]2C=C[C@@H](CO)O2)c(=O)[nH]c1=O` [Stavudine] belongs “significant and dose-dependent inhibition”.
Consider `OO` [hydrogen peroxide], for which, in the assay on HERV-K viral transcripts, the “activation of HERV-K (viral transcripts)” value is listed as “No activation of HERV-K”.
On to `Cc1cc(C#N)cc(C)c1Oc1nc(Nc2ccc(C#N)cc2)nc(N)c1Br` [Etravirine], for which the “inhibition of HERV-K RT activity” value in assay [1] is on record as “significant inhibition”.
Consider `Nc1nc(NC2CC2)c2ncn([C@H]3C=C[C@@H](CO)C3)c2n1` [Abacavir], for which the “inhibition of HERV-K RT activity” value in assay [1] is “significant and dose-dependent inhibition”. Also, in the assay with VSV-G pseudotyped HERV-K, the “inhibition of HERV-K replication (in words)” value was “effectively block; also recorded: inhibited HERV-K replication in a dose-dependent manner; also recorded: effectively inhibited” and the IC90 is 175 nM.
